{
  "source": "paper PMC5728534",
  "about": "(PLoS ONE, 2017)",
  "key": {"OCT1*2 (Met420del)": {"target": "T1, OCT1*2 (Met420del) (Homo sapiens, UniProt O15245, DEL420-420/L160F)", "T1 sequence (O15245 with tags, fused parts or gaps L160F/DEL420-420)": "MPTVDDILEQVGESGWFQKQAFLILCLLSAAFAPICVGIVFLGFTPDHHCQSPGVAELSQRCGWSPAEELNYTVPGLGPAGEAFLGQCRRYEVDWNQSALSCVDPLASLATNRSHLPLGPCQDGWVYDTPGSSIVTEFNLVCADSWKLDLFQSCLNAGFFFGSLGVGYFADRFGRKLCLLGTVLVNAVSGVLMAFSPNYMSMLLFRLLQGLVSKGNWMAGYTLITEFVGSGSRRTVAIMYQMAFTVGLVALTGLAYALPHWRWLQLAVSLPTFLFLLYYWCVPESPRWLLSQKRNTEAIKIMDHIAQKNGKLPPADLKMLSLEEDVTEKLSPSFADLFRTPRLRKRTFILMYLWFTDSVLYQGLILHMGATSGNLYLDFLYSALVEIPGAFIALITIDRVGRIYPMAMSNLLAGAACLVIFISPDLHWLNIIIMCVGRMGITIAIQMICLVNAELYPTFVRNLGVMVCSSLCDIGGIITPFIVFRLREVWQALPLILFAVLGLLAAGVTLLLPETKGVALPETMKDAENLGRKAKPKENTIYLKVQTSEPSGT", "test": "Inhibition by ranitidine of OCT1-mediated substrate uptake, OCT1*2 allele, HEK293 cells", "assay_type": "cell-based", "design": "expressed in transfected cells; host or cells: HEK293 T-REx (Flp-In)", "from_the_text": "(§1) HEK293 or CHO cells overexpressing the human OCT1 alleles *1A (characterized by the amino acid substitution Met408Val), *1B, *1C (Phe160Leu), *1D (Pro341Leu/Met408Val), *2 (Met420del), *3 (Arg61Cys), *4 (Gly401Ser), *5 (Gly465Arg/Met420del), *6 (Cys88Arg/Met420del), *7 (Ser14Phe), *8A (Arg488Met), *8B (Arg488Met/Met408Val), *9 (Pro117Leu), *10 (Ser189Leu), *11 (Ile449Thr), *12 (Ser29Leu), or *13 (Thr245Met), the human OCT2 reference and variant alleles (Ala270Ser), human OCT3, and the control cells (transfected with the empty pcDNA5 vector) were generated by targeted chromosomal integration using the Flp-In™ System (Life Technologies, Darmstadt, Germany).\nCells were kept at 37°C and 5% CO2 in DMEM (HEK293) or RPMI (CHO), supplemented with 10% FCS, 100 U/ml penicillin, and 100 μg/ml streptomycin. Uptake experiments were performed at pH 7.4 using HBSS supplemented with 10 mM HEPES buffer (herein referred to as HBSS+). Cells were washed once with 1 ml pre-warmed HBSS+ buffer (37°C). […] Cells were washed twice with 2 ml ice-cold HBSS+ and lysed in 500 μl lysis buffer.\nThe intracellular concentration of MPP^+ was determined using liquid scintillation counting of radioactively labeled substrate. To this end, 400 μl cell lysate was measured with 9 ml Aquasafe Plus liquid scintillator using the Scintillation Counter LS6500 (Beckman Coulter, Krefeld, Germany). Intracellular ASP^+ concentrations were determined using fluorescence spectroscopy.\n(§2) For all transport measurements, the intracellular amount of substrate was normalized to the total amount of protein of the sample as measured using the bicinchoninic acid assay [49].\nFor quantification of intracellular substrates, the cell debris were removed by centrifugation at 17,000 x g for 10 min. Four-hundred μl of the supernatant was evaporated to dryness under nitrogen flow at 40°C. The residue was reconstituted in 200 μl 0.1% formic acid and 10 μl were injected into the LC-MS/MS. For the LC-MS/MS analysis an API 4000™ system tandem mass spectrometer (AB SCIEX, Darmstadt, Germany) was used. Samples were separated using a Brownlee SPP RP-Amide Column (4.6x100 mm, 2.7 μm; PerkinElmer), with a SecurityGuard C18, 4x2 mm pre-column (Phenomenex, Aschaffenburg, Germany).\nNonlinear regression to the Michaelis-Menten equation was performed to determine Km and vmax using GraphPad Prism version 6 (GraphPad Software Inc., La Jolla, CA, USA). Nonlinear regression to the Hill equation v = vmin+(vmax-vmin)/1+([I]/IC50)^-Hillslope was performed to determine IC50 using SigmaPlot version 12.0 (Systat Software, San Jose, California, USA)."}, "OCT1*1C (Phe160Leu)": {"target": "T2, OCT1*1C (Phe160Leu) (Homo sapiens, UniProt O15245)", "T2 sequence (O15245 1-554)": "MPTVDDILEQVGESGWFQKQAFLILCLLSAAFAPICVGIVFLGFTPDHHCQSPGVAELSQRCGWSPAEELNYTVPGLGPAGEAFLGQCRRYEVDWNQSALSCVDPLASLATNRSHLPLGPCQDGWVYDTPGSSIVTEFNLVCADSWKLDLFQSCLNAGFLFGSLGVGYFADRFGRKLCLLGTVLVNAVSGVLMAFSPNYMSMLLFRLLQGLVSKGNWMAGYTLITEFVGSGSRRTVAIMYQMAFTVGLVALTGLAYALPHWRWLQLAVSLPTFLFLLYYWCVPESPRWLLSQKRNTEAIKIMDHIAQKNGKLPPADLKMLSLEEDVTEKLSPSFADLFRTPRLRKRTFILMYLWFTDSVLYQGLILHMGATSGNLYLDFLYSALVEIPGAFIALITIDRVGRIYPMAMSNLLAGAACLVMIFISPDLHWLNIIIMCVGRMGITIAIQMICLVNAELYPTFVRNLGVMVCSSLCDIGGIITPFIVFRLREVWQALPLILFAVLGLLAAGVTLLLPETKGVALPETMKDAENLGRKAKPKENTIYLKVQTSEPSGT", "details": "1 and 10 μM ranitidine, 2 min", "from_the_text": "as §1\n(§3) Six hundred thousand HEK293 or CHO cells were plated per well in 12-well plates (pre-coated with poly-D-lysine) and were grown for 48 hours to reach confluence. Cells were kept at 37°C and 5% CO2 in DMEM (HEK293) or RPMI (CHO), supplemented with 10% FCS, 100 U/ml penicillin, and 100 μg/ml streptomycin. Uptake experiments were performed at pH 7.4 using HBSS supplemented with 10 mM HEPES buffer (herein referred to as HBSS+). […]\nas §2\n(§4) For quantification of intracellular substrates, the cell debris were removed by centrifugation at 17,000 x g for 10 min. […]"}, "[1]": {"target": "T3, OCT1*6 (Cys88Arg/Met420del) (Homo sapiens, UniProt O15245, C88R/DEL420-420/L160F)", "T3 construct": "expressed in transfected cells; host or cells: HEK293 T-REx (Flp-In)", "T3 sequence (O15245 with tags, fused parts or gaps C88R/L160F/DEL420-420)": "T1 sequence (O15245 with tags, fused parts or gaps L160F/DEL420-420) with C88R", "test": "Ranitidine uptake in HEK293 cells overexpressing OCT1*6", "assay_type": "in vitro ADME", "details": "1 μM and 10 μM ranitidine, 2 min", "from_the_text": "as §1, §3, §2, §4"}, "[2]": {"details": "physiological pH of 7.4; no reference given; cited from earlier work"}, "OCT1*12 (Ser29Leu)": {"target": "T4, OCT1*12 (Ser29Leu) (Homo sapiens, UniProt O15245, L160F/S29L)", "T4 construct": "expressed in transfected cells; host or cells: HEK293 T-REx (Flp-In)", "T4 sequence (O15245 1-554 S29L/L160F)": "T2 sequence (O15245 1-554) with S29L, L160F", "test": "Ranitidine uptake in HEK293 cells overexpressing OCT1*12", "assay_type": "in vitro ADME", "details": "1 μM and 10 μM ranitidine, 2 min", "from_the_text": "as §1, §3, §2, §4"}},
  "note": "Where a chain is given by its changes, count along the chain named. “Also recorded” adds a separate entry of the source. Read-outs that look alike come from different tables or passages of the source.",
  "data": [
    {"smiles": "CNC(=C[N+](=O)[O-])NCCSCc1ccc(CN(C)C)o1", "note": "[ranitidine, Ranitidine]", "values": [
      {"measurement": "IC50 at 2 min", "setting": "OCT1*2 (Met420del); human, HEK293 cells overexpressing OCT1*2 (Met420del), pH 7.4, probe metformin (100 μM), substrate 100 μM metformin, OCT1*2, 2 min, HEK293", "result": 14.8, "unit": "µM"},
      {"measurement": "inhibition at 2 min", "setting": "OCT1*2 (Met420del); human, HEK293 cells overexpressing OCT1*2 (Met420del), pH 7.4, probe metformin (100 μM), read-out: inhibition of metformin uptake", "result": 50, "unit": "%"},
      {"measurement": "inhibition at 2 min", "setting": "OCT1*2 (Met420del); human, HEK293 cells overexpressing OCT1*2 (Met420del), pH 7.4, probe morphine (0.1 μM), read-out: inhibition of morphine uptake", "result": "≤ 30", "unit": "%"},
      {"measurement": "inhibition at 2 min", "setting": "OCT1*2 (Met420del); human, HEK293 cells overexpressing OCT1*2 (Met420del), pH 7.4, high concentrations expected in the gastrointestinal tract, all substrates tested, OCT1*2, read-out: inhibition of substrate uptake", "result": "> 70", "unit": "%"},
      {"measurement": "IC50", "setting": "OCT1*2 (Met420del); substrate 0.1 μM MPP+, OCT1*2, 2 min, HEK293", "result": 34.4, "unit": "µM"},
      {"measurement": "IC50", "setting": "OCT1*2 (Met420del); substrate 0.1 μM morphine, OCT1*2, 2 min, HEK293", "result": 19.5, "unit": "µM"},
      {"measurement": "IC50", "setting": "OCT1*2 (Met420del); substrate 1 μM ASP+, OCT1*2, 2 min, HEK293", "result": 155, "unit": "µM"},
      {"measurement": "uptake of ranitidine compared to the reference allele", "setting": "OCT1*1C (Phe160Leu)", "result": "no significant difference"},
      {"measurement": "ranitidine transport activity", "setting": "[1]", "result": "completely lacked ranitidine uptake; also recorded: complete lack of ranitidine transport activity"},
      {"measurement": "ranitidine molecules that are positively charged organic cations", "setting": "[2]", "result": 86, "unit": "%"},
      {"measurement": "ranitidine transport activity", "setting": "OCT1*12 (Ser29Leu)", "result": "completely lacked ranitidine uptake; also recorded: complete lack of ranitidine transport activity"}
    ]}
  ]
}
